Test results reported in publication PMC5101207, “The Oxidosqualene Cyclase from the Oomycete Saprolegnia parasitica Synthesizes Lanosterol as a Single Product” (Frontiers in Microbiology, 2016).

Target: T1, SpLASA (Saprolegnia parasitica, UniProt A0A067BWL7)
T1 construct: gene SPRG_11783; full length, 805 residues (2415 bp amplicon from mycelium cDNA), C-terminal His6 tag (pET-DEST42), E. coli BL21 (DE3), about 91 kDa; not the truncated paralogue SpLASB (SPRG_17895, 472 residues)
T1 sequence (A0A067BWL7 1-805): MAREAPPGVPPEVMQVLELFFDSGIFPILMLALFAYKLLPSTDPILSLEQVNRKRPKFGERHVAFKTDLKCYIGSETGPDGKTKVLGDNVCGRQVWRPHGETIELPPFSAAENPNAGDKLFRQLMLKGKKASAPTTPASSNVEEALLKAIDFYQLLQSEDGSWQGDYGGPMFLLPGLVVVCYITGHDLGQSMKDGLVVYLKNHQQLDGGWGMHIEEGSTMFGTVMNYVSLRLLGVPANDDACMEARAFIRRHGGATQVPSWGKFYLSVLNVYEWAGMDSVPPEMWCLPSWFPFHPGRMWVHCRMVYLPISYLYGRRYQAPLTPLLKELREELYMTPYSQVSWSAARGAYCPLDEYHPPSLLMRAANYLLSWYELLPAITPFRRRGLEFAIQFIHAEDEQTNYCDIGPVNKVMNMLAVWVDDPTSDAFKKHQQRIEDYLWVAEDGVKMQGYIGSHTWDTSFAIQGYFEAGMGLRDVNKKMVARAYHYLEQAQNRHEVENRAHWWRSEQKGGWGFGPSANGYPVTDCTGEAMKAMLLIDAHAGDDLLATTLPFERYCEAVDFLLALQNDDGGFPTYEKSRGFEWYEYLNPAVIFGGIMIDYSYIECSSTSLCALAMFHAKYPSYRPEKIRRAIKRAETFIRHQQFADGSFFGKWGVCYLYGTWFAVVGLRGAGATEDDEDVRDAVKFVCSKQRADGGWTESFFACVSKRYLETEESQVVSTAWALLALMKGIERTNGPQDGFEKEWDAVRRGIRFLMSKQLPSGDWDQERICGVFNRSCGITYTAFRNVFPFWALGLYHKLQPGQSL
Assay: GC-MS of silylated sterols after incubation with purified enzyme
Assay type: biochemical
Conditions: 50 mM sodium phosphate pH 7.4, 25°C, 24 h; 10.7 μg substrate, 37.5-112.5 μg protein

Row | Structure (SMILES) | GC-MS of silylated sterols after incubation with purified enzyme
1 | CC(C)=CCC/C(C)=C/CC/C(C)=C/CC/C=C(\C)CC/C=C(\C)CC[C@@H]1OC1(C)C [2,3-oxidosqualene] | These experiments confirmed the specific conversion of OS into LA.
2 | CC(C)=CCC[C@@H](C)[C@H]1CC[C@@]2(C)C3=C(CC[C@]12C)[C@@]1(C)CC[C@H](O)C(C)(C)[C@@H]1CC3 [lanosterol] | the proportion of LA increased linearly with increasing protein concentration
